In US20110294874A1, “DIAGNOSIS AND THERAPY OF ORGAN DYSFUNCTION USING SPHINGANINE-1-PHOSPHATE” (The Trustees of Columbia University in the City of New York, priority 2008, published 2011):
Where “and” joins values, the source holds several entries; their conditions need not be identical. Identical values can stand only once.

How the values were obtained:
[1] = test system: IHUVEC monolayers; experiment: Evans blue dye-albumin permeability of IHUVEC monolayers; type: cell-based, human
Protocol: IHUVEC—immortalized human umbilical vein endothelial cells (ATCC, P.O. Box 1549 Manassas, Va. 20108) or HRGEC—human renal glomerular endothelial cells (ScienCell Research Laboratories, 6076 Corte Del Cedro Carlsbad, Calif. 92011) were cultured within a humidified atmosphere of 5% CO2 in air and grown to confluence. When confluent, the cells were trypsinized and seeded onto 0.45 μm pore size polycarbonate filters at the base of inserts of 6.5 mm diameter Transwell chambers and cultured until confluence.
Human endothelial cell permeability was assessed with the Evans blue dye extravasation assay (Awad et al., 2006). The permeability characteristics of the resulting confluent monolayers were assessed by following the diffusion of albumin-conjugated Evan's blue dye from the upper to lower compartments of the Transwell chambers. After addition of dye, chambers were shaken and allowed to equilibrate for 10-30 min at 37° C. After equilibration, stimuli were added and dye levels in lower compartments intermittently assayed by spectrophotometric analysis.
The addition of TNF-α or thrombin induces apoptosis and increases cell permeability in cultured endothelial cells.

[2] = test system: C57BL/6 mice subjected to liver IR; experiment: Liver H&E histology after liver IR (percent necrosis, Suzuki score); type: in vivo, mouse; conditions: liver IR; for Suzuki score (0 = no injury, 12 = maximal injury): H&E liver
Protocol: (§1) Mice were anesthetized with intraperitoneal pentobarbital (50 mg/kg or to effect). Mice were placed under a heating lamp and on a 37° C. heating pad. After a midline laparotomy and intraperitoneal application of 20 U heparin, left lateral and median lobes of the liver were subjected to ischemia with a microaneurysm clip occluding the hepatic triad above the bifurcation. This method of partial hepatic ischemia results in a segmental (˜70%) hepatic ischemia but spares the right lobe of the liver and prevents mesenteric venous congestion by allowing portal decompression throughout the right and caudate lobes of the liver. The liver was then repositioned in the peritoneal cavity in its original location for 60 minutes. The liver was kept moist with gauze soaked in 0.9% normal saline. The body temperature was monitored by an infrared temperature sensor (Linear Laboratories, Fremont, Calif.) every 10 min. and maintained at 37° C. using a heating lamp and a heating pad. After 60 minutes, the liver was reperfused and the wound closed. Sham-operated mice were subjected to laparotomy and identical liver manipulations without vascular occlusion. Two, 4 and 24 hr after reperfusion, plasma was collected for the measurement of alanine aminotransferase (ALT), a common indicator of liver damage, as well as creatinine (Cr) a common indicator of kidney damage. The liver tissue subjected to IR was collected to measure percent liver necrosis (2, 4 and 24 hr after IR), neutrophil infiltration (with immunohistochemistry, 4 and 24 hr after IR), apoptosis (with terminal deoxynucleotidyl transferase-mediated dUTP nick end labeling staining, caspase 3 immunoblotting and DNA laddering, 24 hr after IR), and inflammation by RT-PCR for pro-inflammatory mRNAs (4 hr after IR).
Livers were also analyzed for the degree of hepatocellular damage using the Suzuki's criteria (Suzuki et al., Transplantation 1993, Vol. 55, pp. 1265-1272). To obtain a Suzuki score, 3 liver injury indices are graded: sinusoidal congestion (0-4), hepatocyte necrosis (0-4), and ballooning degeneration (0-4) are graded for a total score of 0-12. No necrosis, congestion, or centrilobular ballooning is given a score of 0 whereas severe congestion/ballooning and >60% lobular necrosis is given a value of 4.

[3] = test system: C57BL/6 mice subjected to liver IR; experiment: Pro-inflammatory mRNA (RT-PCR) and plasma TNF-α/IL-6 after liver IR; type: in vivo, mouse
Protocol: as §1
The extent of the suppression was different between kidney and liver. […]

[4] = test system: C57BL/6 mice subjected to liver IR; experiment: Evans blue dye extravasation (vascular permeability) in liver and kidney after liver IR; type: in vivo, mouse; conditions: vs vehicle-treated group
Protocol: After observing marked endothelial apoptosis following liver IR, liver and kidney vascular permeability after liver IR was measured with Evans blue dye (EBD) injection. EBD binds to plasma proteins and its appearance in extravascular tissues reflects an increase in vascular permeability, which is indicative of organ injury. Liver IR increased the EBD content (in μg EBD/g dry weight) in the liver (377±48, N=6) compared to sham-operated mice (48±7, N=4, p<0.001).

[5] = test system: Nephrectomized C57BL/6 mice with liver IR; experiment: Nephrectomized C57BL/6 mice with 45 min. liver IR: serum ALT; type: in vivo, mouse
Protocol: Normally, 1 hour of liver IR results in serum ALT increasing to 15076±1174 U/L (N=6) 24 hours later. In nephrectomized mice, however, the rise in ALT was more severe, and it rose to 20237±2628 U/L (N=3) after only 45 minutes of liver IR. The nephrectomized mice were also less responsive to Sg1P treatment.

[6] = test system: C57BL/6 mice subjected to liver IR; experiment: Murine model of liver ischemia reperfusion (hepatic IR): plasma ALT and creatinine; type: in vivo, mouse
[7] = test system: human epithelial HK-2 cell line; experiment: Kinase phosphorylation and HSP27 expression in HK-2 cells; type: cell-based; conditions: HK-2 (data not shown)
Excerpt: As shown above, Sg1P protects human endothelial cells, and does so through the same mechanism as shown in mouse tissue.

[8] = test system: C57BL/6 mice subjected to liver IR; experiment: Neutrophil infiltration into liver and kidney after liver IR; type: in vivo, mouse
Protocol: as §1, with “The liver tissue subjected to IR was collected to measure percent liver necrosis (2, 4 and 24 hr after IR), neutrophil infiltration (with immunohistochemistry, 4 and 24 hr after IR), apoptosis (with terminal deoxynucleotidyl transferase-mediated dUTP nick end labeling staining, caspase 3 immunoblotting and DNA laddering, 24 hr after IR), and inflammation by RT-PCR for pro-inflammatory mRNAs (4 hr after IR).” left out

[9] = test system: Sham-operated C57BL/6 mice; experiment: Sham-operated C57BL/6 mice: plasma ALT and creatinine; type: in vivo, mouse
Protocol: as §1, with “The liver tissue subjected to IR was collected to measure percent liver necrosis (2, 4 and 24 hr after IR), neutrophil infiltration (with immunohistochemistry, 4 and 24 hr after IR), apoptosis (with terminal deoxynucleotidyl transferase-mediated dUTP nick end labeling staining, caspase 3 immunoblotting and DNA laddering, 24 hr after IR), and inflammation by RT-PCR for pro-inflammatory mRNAs (4 hr after IR).” left out

[10] = nephrectomized, 45 min. liver IR
[11] = 0.2 mg/kg i.v. 2 hours post-reperfusion
[12] = C57BL/6 mice, 60 min liver ischemia, 24 h reperfusion
[13] = single dose 0.1 mg/kg i.v. immediately before reperfusion
[14] = single dose 0.2 mg/kg s.c. two hours after reperfusion

CCCCCCCCCCCCCCC[C@@H](O)[C@@H](N)COP(=O)(O)O [Sg1P, sphinganine-1-phosphate]
Thrombin-induced permeability (albumin leak) ([1]; 5 U/ml thrombin): same cytoprotective effect | TNF-α-induced permeability (albumin leak) ([1]; TNF-α 50 ng/ml or 100 ng/ml, concurrent Sg1P): reduced the permeability of the cells to levels comparable to control | Suzuki score (0 = no injury, 12 = maximal injury) [2]: 5.2 ± 0.8 | Suzuki score (0 = no injury, 12 = maximal injury) ([2]; listed as sphinganine 1-phosphate): 5.2±0.8 | Average percent necrotic areas in liver ([2]; H&E): 44±8% | Liver IR-induced ICAM-1 and MIP-2 mRNA upregulation in kidney ([3]; kidney): suppressed | Liver IR-induced upregulation of ICAM-1, KC, MCP-1 and MIP-2 mRNA in liver ([3]; liver): suppressed | Liver IR-induced increase in plasma TNF-α and IL-6 ([3]; plasma): almost eliminated | Increase in EBD content in liver and kidney [4]: significantly lower | Reduction in the severity of liver injury (change in ALT levels) ([5]; nephrectomized mice): 16% | ALT (24 hrs. post-IR), individual mice [5, 10]: 15993.65 U/L and 19276.19 U/L and 15819.05 U/L | ALT (24 hrs. post-IR), mean [5, 10]: 17029±1124 U/L and 17029.63 U/L | ALT (liver protection) [6, 11]: 12063±593 U/L | Creatinine (kidney protection) [6, 11]: 0.93 ± 0.05 mg/dL | Serum ALT (mean) [6, 12]: 7474±557 U/L and 7474 U/L | Serum creatinine (mean) [6, 12]: 0.528 ± 0.07 mg/dL and 0.55 mg/dL | Most effective dose for treating both kidney and liver failure ([6]; dose response 0.01-1.0 mg/kg i.v. prior to reperfusion plus double dose s.c. 2 h after, serum creatinine and ALT): 0.1 mg/kg i.v. prior to reperfusion followed by 0.2 mg/kg s.c. 2 hours after reperfusion | Reduction in the severity of liver injury (change in ALT levels) ([6]; non-nephrectomized mice): 50% | ALT [6, 13]: 7197±753 U/L | Cr [6, 13]: 0.58 ± 0.06 mg/dL | ALT [6, 14]: 14762±1732 U/L | Cr [6, 14]: 0.98 ± 0.06 mg/dL | Phosphorylation of ERK/MAPK, Akt, HSP27 and HSP27 expression [7]: failed to phosphorylate ERK/MAPK, Akt and HSP27 and also failed to induce HSP27 expression | Neutrophils in necrotic areas of the liver [8]: 21.8±7.1 neutrophils/field | Neutrophils in the kidneys [8]: 0.8±0.3 neutrophils/field | Mean ALT [9]: 80 U/L | Mean Creatinine [9]: 0.46 mg/dL
